Molecular target: T1, 5-HT3 receptors (Mus musculus, UniProt P23979)
T1 construct: a group of 5 male or female CD-1 (Crl.) mice; from tissue
T1 sequence (P23979 24-489): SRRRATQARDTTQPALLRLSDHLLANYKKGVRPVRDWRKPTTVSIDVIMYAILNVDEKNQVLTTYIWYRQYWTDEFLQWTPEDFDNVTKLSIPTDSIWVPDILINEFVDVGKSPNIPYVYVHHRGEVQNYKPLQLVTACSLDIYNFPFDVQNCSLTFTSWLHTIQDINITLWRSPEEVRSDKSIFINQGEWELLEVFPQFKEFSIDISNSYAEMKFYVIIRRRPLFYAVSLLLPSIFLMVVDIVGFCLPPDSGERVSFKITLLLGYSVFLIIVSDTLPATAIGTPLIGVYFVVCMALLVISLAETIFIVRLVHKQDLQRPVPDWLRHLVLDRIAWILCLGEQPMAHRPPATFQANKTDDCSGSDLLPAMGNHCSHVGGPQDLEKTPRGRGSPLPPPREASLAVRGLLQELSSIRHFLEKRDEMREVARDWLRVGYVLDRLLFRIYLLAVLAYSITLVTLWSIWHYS
Assay: Bezold-Jarisch assay in vivo (inhibition of serotonin induced bradycardia)
Conditions: 30 mg/kg orally, CD-1 mice; 5-HT (0.5 mg/kg IV)-induced bradycardia recorded sixty minutes later, pentobarbital-anesthetized
Protocol: Bezold-Jarisch Assay in vivo. […] Arch. Int. Pharmacodyn. 277: 235-252, 1985]. Test substances and vehicle [2% Tween 80] were each administered orally (30 mg/kg) to a group of 5 male or female CD-1 (Crl.) mice each weighing 24±2 g. A dosing volume of 10 mL/kg was used. Sixty minutes later, 5-HT (0.5 mg/kg IV)-induced bradycardia was recorded in pentobarbital (80 mg/kg IP, given 10 minutes before 5-HT)-anesthetized animals.

In order of rising “% Inhibition in vivo” value:
1. CN1C2CCCC1CC(NC(=O)c1cc(Cl)cc3oc(-c4ccccc4)nc13)C2 (stereo not shown)  40%
2. O=C(NC1CN2CCC1CC2)c1cccc2oc(-c3ccsc3)nc12 (stereo not shown)  62%
3. COc1ccccc1-c1nc2c(C(=O)NC3CN4CCC3CC4)cccc2o1 (stereo not shown)  88%

Test system: not given
Assay: not given
Conditions: not given

First: Cc1nccn1CCCNC(=O)c1cccc2oc(-c3ccccc3)nc12
Second: Cc1nccn1CCNC(=O)c1cccc2oc(-c3ccccc3)nc12
The melting point of the first is higher: 145 to 148 °C for the first, 125 to 127 °C for the second.

`CN1CCC(NC(=O)c2cc(Cl)cc3oc(-c4ccccc4)nc23)CC1` and `O=C(NC1CCNCC1)c1cc(Cl)cc2oc(-c3ccccc3)nc12` cannot be ordered by melting point: 170 to 172 °C for the first, 169 to 171 °C for the second.

Compared with `O=C(NC1CN2CCC1CC2)c1cc(Cl)cc2oc(-c3ccccc3)nc12` (stereo not shown), `O=C(NC1CN2CCC1CC2)c1cc(Cl)cc2nc(-c3ccccc3)oc12` (stereo not shown) is higher in melting point: 180 to 183 °C for the first, 283 to 285 °C for the second.

First: O=C(NC1CN2CCC1CC2)c1cccc2oc(-c3ccc(Cl)cc3)nc12 (stereo not shown)
Second: O=C(NC1CN2CCC1CC2)c1cccc2oc(-c3ccc(F)cc3)nc12 (stereo not shown)
The melting point of the first is lower: 194 to 196 °C for the first, 208 to 209 °C for the second.

Compared with `CN1C2CCCC1CC(NC(=O)c1cccc3oc(-c4ccc(Cl)cc4)nc13)C2` (stereo not shown), `CN1C2CCCC1CC(NC(=O)c1cccc3oc(-c4ccc(F)cc4)nc13)C2` (stereo not shown) is higher in melting point: 185 to 187 °C for the first, 197 to 199 °C for the second.

First: COc1ccc(-c2nc3c(C(=O)NC4CN5CCC4CC5)cccc3o2)cc1 (stereo not shown)
Second: COc1ccc(-c2nc3cccc(C(=O)NC4CN5CCC4CC5)c3o2)cc1 (stereo not shown)
The melting point of the first is lower: 108 to 109 °C for the first, 166 to 167 °C for the second.

First: COc1ccc(-c2nc3c(C(=O)NC4CC5CCCC(C4)N5C)cccc3o2)cc1 (stereo not shown)
Second: COc1ccc(-c2nc3cccc(C(=O)NC4CC5CCCC(C4)N5C)c3o2)cc1 (stereo not shown)
The melting point of the first is lower: 103 to 105 °C for the first, 160 to 162 °C for the second.

First: CN1CCC(NC(=O)c2cccc3nc(-c4ccccc4)oc23)CC1
Second: CN1CCC(NC(=O)c2cccc3oc(-c4ccccc4)nc23)CC1
The melting point of the first is higher: 209 to 210 °C for the first, 126 to 128 °C for the second.

First: O=C(NC1CCNCC1)c1cccc2nc(-c3ccccc3)oc12
Second: O=C(NC1CCNCC1)c1cccc2oc(-c3ccccc3)nc12
The melting point of the first is higher: 191 to 193 °C for the first, 99 to 102 °C for the second.

Compared with `O=C(NC1CN2CCC1CC2)c1cccc2nc(-c3ccccc3)oc12` (stereo not shown), `O=C(NC1CN2CCC1CC2)c1cccc2oc(-c3ccccc3)nc12` (stereo not shown) is lower in melting point: 179 to 180 °C for the first, 77 to 80 °C for the second.

First: CN1C2CCC1CC(NC(=O)c1cccc3nc(-c4ccccc4)oc13)C2 (stereo not shown)
Second: CN1C2CCC1CC(NC(=O)c1cccc3oc(-c4ccccc4)nc13)C2 (stereo not shown)
The melting point of the first is higher: 164 to 166 °C for the first, 149 to 151 °C for the second.

First: CN1C2CCCC1CC(NC(=O)c1cc(Cl)cc3nc(-c4ccccc4)oc13)C2 (stereo not shown)
Second: CN1C2CCCC1CC(NC(=O)c1cccc3nc(-c4ccc(Cl)cc4)oc13)C2 (stereo not shown)
The melting point of the first is higher: 199 to 201 °C for the first, 193 to 196 °C for the second.

First: O=C(NC1CN2CCC1CC2)c1cccc2nc(-c3ccc(F)cc3)oc12 (stereo not shown)
Second: O=C(NC1CN2CCC1CC2)c1cccc2nc(-c3ccc(Cl)cc3)oc12 (stereo not shown)
The melting point of the first is higher: 185 to 187 °C for the first, 181 to 183 °C for the second.

First: CN1C2CCCC1CC(NC(=O)c1cccc3nc(-c4ccc(F)cc4)oc13)C2 (stereo not shown)
Second: CN1C2CCCC1CC(NC(=O)c1cccc3oc(-c4ccccc4)nc13)C2 (stereo not shown)
The melting point of the first is higher: 229 to 231 °C for the first, 182 to 185 °C for the second.

— patent US7781430B2, “Benzoxazole carboxamides for treating CINV and IBS-D” (Albany Molecular Research, Inc., priority 2005, dated 2010)
